Drawing on patent US20240425479A1, “HALO-SUBSTITUTED AMINO AZA-HETEROARYL COMPOUNDS AS INHIBITORS OF THE HAEMATOPOIETIC PROGENITOR KINASE 1 (HPK1)” (priority 2021, published 2024), this text covers IC50 for 27 compounds.

As usually defined, the IC50 is the concentration needed to halve the response being measured.

The target in this test is T1, Recombinant (1-346) HPK1 (h) (Homo sapiens, UniProt Q92918).
T1 construct: Recombinant (1-346) HPK1 (h) is incubated with 8 mM MOPS pH 7.0
T1 sequence (Q92918 1-346): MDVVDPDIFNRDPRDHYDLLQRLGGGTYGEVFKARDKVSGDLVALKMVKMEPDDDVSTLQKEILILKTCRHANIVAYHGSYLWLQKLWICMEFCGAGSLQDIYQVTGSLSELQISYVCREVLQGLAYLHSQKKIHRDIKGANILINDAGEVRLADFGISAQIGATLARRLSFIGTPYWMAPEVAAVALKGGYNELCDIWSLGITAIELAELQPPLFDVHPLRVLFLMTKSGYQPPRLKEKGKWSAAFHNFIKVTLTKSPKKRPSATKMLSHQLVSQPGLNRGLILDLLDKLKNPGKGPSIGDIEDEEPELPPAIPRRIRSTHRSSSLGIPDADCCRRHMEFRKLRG
Kind of test: HPK1 human STE kinase enzymatic radiometric assay. In kind it is biochemical. The settings on record: read-out: HPK1 IC50 nM Range. The method in brief: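 Compounds in 3-fold, 9-point serial dilution; kinase (residues 1-346) phosphorylates myelin basic protein (0.33 mg/mL) using [gamma-33P]-ATP at pH 7.0 (MOPS, EDTA, Mg acetate) for 40 min, room temperature. Acid-quenched mixture filtered onto P30 mats; incorporated radioactivity read by scintillation counting.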

Take `Cc1c[nH]c(=O)c2ccc(-c3nc(-c4cc(CN(C)C)c(N5CCOCC5)cc4F)c(F)nc3N)cc12` [Example I-261, 6-(3-amino-6-(5-((dimethylamino)methyl)-2-fluoro-4-morpholinophenyl)-5-fluoropyrazin-2-yl)-4-methylisoquinolin-1(2H)-one]: the 50% inhibitory concentration (IC50) fell in the range of 101 to 1000 nM. Consider `COC1CN(Cc2cc(-c3nc(-c4cc5c(cc4F)C(=O)NCC5)c(N)nc3F)ccc2C2CCOCC2)C1` [Example I-190, 6-(3-amino-5-fluoro-6-(3-((3-methoxyazetidin-1-yl)methyl)-4-(tetrahydro-2H-pyran-4-yl)phenyl)pyrazin-2-yl)-7-fluoro-3,4-dihydroisoquinolin-1(2H)-one], for which the IC50 was in the range of 0.1 to 10 nM. As for `COC1CCN(Cc2cc(-c3nc(-c4cc5c(cc4F)C(=O)NCC5)c(N)nc3F)ccc2N2CCSCC2)CC1` [Example I-127, 6-(3-amino-5-fluoro-6-(3-((4-methoxypiperidin-1-yl)methyl)-4-thiomorpholinophenyl)pyrazin-2-yl)-7-fluoro-3,4-dihydroisoquinolin-1(2H)-one], the IC50 lay in the range of 11 to 100 nM. In the case of `CCN(C)Cc1cc(-c2nc(-c3ccc4c(c3)CCNC4=O)c(N)nc2F)ccc1C1CCOCC1` [Example I-163, 6-(3-amino-6-(3-((ethyl(methyl)amino)methyl)-4-(tetrahydro-2H-pyran-4-yl)phenyl)-5-fluoropyrazin-2-yl)-3,4-dihydroisoquinolin-1(2H)-one], the IC50 was 0.1 to 10 nM.

With `CCN(C)Cc1c(N2CCOCC2)ccc(-c2nc(-c3ccc4c(c3)CCNC4=O)c(N)nc2F)c1F` [Example I-248, 6-(3-amino-6-(3-((ethyl(methyl)amino)methyl)-2-fluoro-4-morpholinophenyl)-5-fluoropyrazin-2-yl)-3,4-dihydroisoquinolin-1(2H)-one], the IC50 lay in the range of 11 to 100 nM. With `COC1CCN(Cc2cc(-c3nc(-c4cc5c(cc4F)C(=O)NCC5)c(N)nc3F)ccc2N2CCOCC2)CC1` [Example I-118, 6-(3-amino-5-fluoro-6-(3-((4-methoxypiperidin-1-yl)methyl)-4-morpholinophenyl)pyrazin-2-yl)-7-fluoro-3,4-dihydroisoquinolin-1(2H)-one] the figure was 11 to 100 nM.

For `CN(C)Cc1cccc(-c2nc(-c3cc(F)c4c(c3)CCNC4=O)c(N)nc2F)c1` [Example I-279, 6-(3-amino-6-(3-((dimethylamino)methyl)phenyl)-5-fluoropyrazin-2-yl)-8-fluoro-3,4-dihydroisoquinolin-1(2H)-one], the IC50 is 11 to 100 nM.

Regarding `Nc1nc(F)c(-c2ccc(N3CCOCC3)c(CN3CCC3)c2F)nc1-c1ccc2c(c1)CCNC2=O` [Example I-243, 6-(3-amino-6-(3-(azetidin-1-ylmethyl)-2-fluoro-4-morpholinophenyl)-5-fluoropyrazin-2-yl)-3,4-dihydroisoquinolin-1(2H)-one], the IC50 was in the range of 11 to 100 nM. As to `Nc1nc(F)c(-c2ccc(C3CCOCC3)c(CN3CCCC3)c2)nc1-c1cc(F)c2c(c1)CCNC2=O` [Example I-149, 6-(3-amino-5-fluoro-6-(3-(pyrrolidin-1-ylmethyl)-4-(tetrahydro-2H-pyran-4-yl)phenyl)pyrazin-2-yl)-8-fluoro-3,4-dihydroisoquinolin-1(2H)-one], the IC50 lay in the range of 0.1 to 10 nM.

Regarding `CCN(C)Cc1cc(-c2nc(-c3ccc4c(=O)[nH]cc(F)c4c3)c(N)nc2F)ccc1OC` [Example I-300, 6-(3-amino-6-(3-((ethyl(methyl)amino)methyl)-4-methoxyphenyl)-5-fluoropyrazin-2-yl)-4-fluoroisoquinolin-1(2H)-one], the IC50 was 11 to 100 nM. Take `Cc1c[nH]c(=O)c2ccc(-c3nc(-c4ccc(F)c(CN(C)C)c4)c(F)nc3N)cc12` [Example I-275, 6-(3-amino-6-(3-((dimethylamino)methyl)-4-fluorophenyl)-5-fluoropyrazin-2-yl)-4-methylisoquinolin-1(2H)-one]: the IC50 was 11 to 100 nM. The result for `Cc1nc2cc(-c3nc(-c4ccc(N5CCN(C(C)C)CC5)cc4)c(F)nc3N)c(F)cc2c(=O)[nH]1` [Example I-63, 7-(3-amino-5-fluoro-6-(4-(4-isopropylpiperazin-1-yl)phenyl)pyrazin-2-yl)-6-fluoro-2-methylquinazolin-4(3H)-one] reads 0.1 to 10 nM.

Consider `C[C@@H]1CN(c2ccc(-c3nc(-c4ccc5c(=O)[nH]cc(F)c5c4)c(N)nc3F)cc2CN(C)C)C[C@H](C)O1` [Example I-230, 6-(3-amino-6-(3-((dimethylamino)methyl)-4-((2R,6S)-2,6-dimethylmorpholino)phenyl)-5-fluoropyrazin-2-yl)-4-fluoroisoquinolin-1(2H)-one], for which the IC50 lay in the range of 0.1 to 10 nM. For `CN(C)[C@@H]1COc2ccc(-c3nc(-c4ccc5c(=O)[nH]cc(F)c5c4)c(N)nc3F)cc21` [Example I-251, (S)-6-(3-amino-6-(3-(dimethylamino)-2,3-dihydrobenzofuran-5-yl)-5-fluoropyrazin-2-yl)-4-fluoroisoquinolin-1(2H)-one], the IC50 lay in the range of 0.1 to 10 nM. Consider `Cc1cc(-c2nc(-c3cc4c(cc3F)C(=O)NCC4)c(N)nc2F)ccc1C1CCOCC1` [Example I-222, 6-(3-amino-5-fluoro-6-(3-methyl-4-(tetrahydro-2H-pyran-4-yl)phenyl)pyrazin-2-yl)-7-fluoro-3,4-dihydroisoquinolin-1(2H)-one], for which the IC50 lay in the range of 0.1 to 10 nM. The result for `CC(C)N1CCN(c2ccc(-c3nc(-c4ccc5c(c4)C4(CC4)NCC5=O)c(N)nc3F)cc2)CC1` [Example I-260, 7′-(3-amino-5-fluoro-6-(4-(4-isopropylpiperazin-1-yl)phenyl)pyrazin-2-yl)-2′,3′-dihydro-4′H-spiro[cyclopropane-1,1′-isoquinolin]-4′-one] reads 101 to 1000 nM; that for `Nc1nc(F)c(-c2ccc(C3CCOCC3)c(CN3CCC3)c2)nc1-c1ccc2c(=O)[nH]cc(F)c2c1` [Example I-204, 6-(3-amino-6-(3-(azetidin-1-ylmethyl)-4-(tetrahydro-2H-pyran-4-yl)phenyl)-5-fluoropyrazin-2-yl)-4-fluoroisoquinolin-1(2H)-one], 0.1 to 10 nM. For the compound `CN(C)[C@@H]1CCOc2ccc(-c3nc(-c4cc5c(cc4F)C(=O)NCC5)c(N)nc3F)cc21` [Example I-288, (R)-6-(3-amino-6-(4-(dimethylamino)chroman-6-yl)-5-fluoropyrazin-2-yl)-7-fluoro-3,4-dihydroisoquinolin-1(2H)-one], the IC50 was in the range of 11 to 100 nM. `CN1CCN(c2ccc(-c3nc(-c4ccc5c(c4)CCNC5=O)c(N)nc3F)cc2)CC1` [Example I-41, 6-(3-amino-5-fluoro-6-(4-(4-methylpiperazin-1-yl)phenyl)pyrazin-2-yl)-3,4-dihydroisoquinolin-1(2H)-one]: the IC50 is 0.1 to 10 nM. With `Nc1nc(F)c(-c2ccc(N3CCN(CCCC(F)F)CC3)cc2)nc1-c1cc(F)c2c(c1)CCNC2=O` [Example I-137, 6-(3-amino-6-(4-(4-(4,4-difluorobutyl)piperazin-1-yl)phenyl)-5-fluoropyrazin-2-yl)-8-fluoro-3,4-dihydroisoquinolin-1(2H)-one] the figure was 0.1 to 10 nM; with `C[C@@H]1CCCN1Cc1cc(-c2nc(-c3cc(F)c4c(c3)CCNC4=O)c(N)nc2F)ccc1C1CCOCC1` [Example I-218, (R)-6-(3-amino-5-fluoro-6-(3-((2-methylpyrrolidin-1-yl)methyl)-4-(tetrahydro-2H-pyran-4-yl)phenyl)pyrazin-2-yl)-8-fluoro-3,4-dihydroisoquinolin-1(2H)-one], 11 to 100 nM. Take `CN(C)[C@@H]1COc2ccc(-c3nc(-c4cc5c(cc4F)C(=O)NCC5)c(N)nc3F)cc21` [Example I-255, (S)-6-(3-amino-6-(3-(dimethylamino)-2,3-dihydrobenzofuran-5-yl)-5-fluoropyrazin-2-yl)-7-fluoro-3,4-dihydroisoquinolin-1(2H)-one]: the IC50 was in the range of 11 to 100 nM. Take `Nc1nc(F)c(-c2ccc(C3CCOCC3)c(CN3CCCC3)c2)nc1-c1ccc2c(=O)[nH]cc(F)c2c1` [Example I-207, 6-(3-amino-5-fluoro-6-(3-(pyrrolidin-1-ylmethyl)-4-(tetrahydro-2H-pyran-4-yl)phenyl)pyrazin-2-yl)-4-fluoroisoquinolin-1(2H)-one]: the IC50 is 0.1 to 10 nM. Regarding `Nc1nc(F)c(-c2ccc(N3CCOCC3)c(CN3CCCC3)c2)nc1-c1ccc2c(=O)[nH]cc(F)c2c1` [Example I-200, 6-(3-amino-5-fluoro-6-(4-morpholino-3-(pyrrolidin-1-ylmethyl)phenyl)pyrazin-2-yl)-4-fluoroisoquinolin-1(2H)-one], the IC50 was 0.1 to 10 nM. With `CO[C@@H]1CCN(Cc2cc(-c3nc(-c4ccc5c(c4)CCNC5=O)c(N)nc3F)ccc2N2CCOCC2)C1` [Example I-151, (R)-6-(3-amino-5-fluoro-6-(3-((3-methoxypyrrolidin-1-yl)methyl)-4-morpholinophenyl)pyrazin-2-yl)-3,4-dihydroisoquinolin-1(2H)-one], the IC50 lay in the range of 0.1 to 10 nM. Take `Nc1nc(F)c(-c2ccc(N3CCN(C4CCC4)CC3)cc2)nc1-c1cc(F)c2c(c1)CCNC2=O` [Example I-47, 6-(3-amino-6-(4-(4-cyclobutylpiperazin-1-yl)phenyl)-5-fluoropyrazin-2-yl)-8-fluoro-3,4-dihydroisoquinolin-1(2H)-one]: the IC50 was in the range of 0.1 to 10 nM.

Turning to `Cc1c[nH]c(=O)c2ccc(-c3nc(-c4ccc(C5CCOCC5)c(CN5CCC5)c4)c(F)nc3N)cc12` [Example I-206, 6-(3-amino-6-(3-(azetidin-1-ylmethyl)-4-(tetrahydro-2H-pyran-4-yl)phenyl)-5-fluoropyrazin-2-yl)-4-methylisoquinolin-1(2H)-one], the IC50 was in the range of 0.1 to 10 nM.
